Measured values reported in ChEMBL document CHEMBL1201862, “PubChem BioAssay data set” (2004).
The source made the active and inactive calls. For most assays here, no stated cut-off is given here; in the data, actives have a measured EC50 and inactives only a lower limit.

Experiments:
[1] = viability of uninfected HEp-2 cells – cell-based, HTS, cytotoxicity control for RSV inhibitor project, dose response (AID 2410); assay type: functional; conditions: human respiratory syncytial virus
Cytochrome P450 1A2 = molecular target: T1, Cytochrome P450 1A2 (Homo sapiens, UniProt P05177);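 further: PubChem cytochrome P450 panel assay, CYP1A2 panel member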
T1 sequence (P05177 whole entry): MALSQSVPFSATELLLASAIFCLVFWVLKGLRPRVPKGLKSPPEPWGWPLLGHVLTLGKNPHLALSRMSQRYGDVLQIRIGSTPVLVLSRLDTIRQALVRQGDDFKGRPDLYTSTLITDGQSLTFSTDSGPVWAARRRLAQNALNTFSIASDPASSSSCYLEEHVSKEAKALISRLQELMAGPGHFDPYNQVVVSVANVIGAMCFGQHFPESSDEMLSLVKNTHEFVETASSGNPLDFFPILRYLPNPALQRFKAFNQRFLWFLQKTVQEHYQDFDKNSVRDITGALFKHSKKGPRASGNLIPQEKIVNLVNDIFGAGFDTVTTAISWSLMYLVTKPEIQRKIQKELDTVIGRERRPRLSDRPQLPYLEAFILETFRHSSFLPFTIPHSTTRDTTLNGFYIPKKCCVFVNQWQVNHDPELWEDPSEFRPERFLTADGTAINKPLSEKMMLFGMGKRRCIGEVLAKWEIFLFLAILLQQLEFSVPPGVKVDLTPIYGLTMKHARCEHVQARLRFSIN

[2] = Trypanosoma cruzi growth suppression in host cells – NIH3T3 host cells, beta-gal luminescence, confirmation (AID 2044); assay type: functional, cell-based;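 further: intracellular parasites grown in NIH/3T3 mouse fibroblasts as host cells; luminescent beta-galactosidase reporter signal from transgenic T. cruzi replicating inside host cells; inhibitors lower the luminescence signal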
[3] = NIH3T3 cell viability loss – ATP luminescence, mouse fibroblasts, counter-screen, dose response (AID 2010); assay type: functional, cell-based;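 further: cells exposed to compound for about 90 hours before reading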
Streptococcus = assay: GAS UMAA2166 growth inhibition – luminescence, BacTiterGlo, counter-screen for streptokinase expression inhibitor project, dose response (AID 1915); assay type: functional, organism-based;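 further: potency for reduction of bacterial viability or growth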
[4] = system: Streptococcus sp. 'group A'; assay: Streptococcus pyogenes SK(-)GAS viability under kanamycin – luminescence, BacTiterGlo, confirmation, counter-screen for streptokinase expression inhibitor project, dose response (AID 1900); assay type: functional, organism-based

| Compound | CC50 [1] | EC50 [2] | EC50 [3] | other results |
| --- | --- | --- | --- | --- |
| CCCn1c(C(C)Nc2nc(-c3ccc(C)cc3)cs2)nc2ccccc21 (configuration not stated) | 15.2 µM (active) |  |  |  |
| Cc1nc2nc(-c3ccccc3)nn2c(C)c1C | 39.4 µM (active) |  |  |  |
| C[C@@H](C(=O)Nc1ccc2ccccc2c1)[C@H]1C[C@]1(C)[C@H](NS(=O)(=O)c1ccc(-c2ccccc2)cc1)c1ccccc1 |  |  |  | AC50 (Cytochrome P450 1A2): 15.8 µM (inconclusive) |
| O=C(O)c1[nH]c2c([N+](=O)[O-])cc([N+](=O)[O-])cc2c1C(=O)O |  |  |  | AC50 (Cytochrome P450 1A2): 0.126 µM (inconclusive) |
| Cc1c(NC(=O)c2cc3c(s2)-c2ccccc2OC3)cccc1[N+](=O)[O-] | 6.43 µM (active) |  |  |  |
| N#CC1=C(N)Oc2c(c(=O)sc3ccccc23)C1c1cccnc1 (configuration not stated) |  | 0.536 µM (active) | 8.85 µM (active) |  |
| NS(=O)(=O)c1ccc(/N=N\c2nc3c(S)ncnc3[nH]2)cc1 |  |  |  | AC50 (Cytochrome P450 1A2): 6.31 µM (inconclusive) |
| COc1ccc2c(c1)OC[C@H]1[C@H]2N2C(=O)CN(Cc3ccc(F)cc3)C(=O)[C@@]2(C)[C@H]1c1ccccc1 | 16.4 µM (active) |  |  |  |
| O=C(c1ccc(COc2ccccc2Cl)o1)N1CCN(c2ccccc2)CC1 | 13.4 µM (active) |  |  |  |
| S=C(NC1CCCCC1)N1CCn2cccc2C1c1cccnc1 (configuration not stated) |  | 0.379 µM (active) | > 60 µM (not active) |  |
| O=[N+]([O-])c1cc([N+](=O)[O-])c2[nH]nc(-c3ccccc3)c2c1 |  | 1.47 µM (active) | > 60 µM (not active) |  |
| COc1ccccc1OCCCn1cc(C=O)c2ccccc21 | 8.95 µM (active) |  |  |  |
| COc1cccc(-c2nnc(Nc3nc4c(F)cccc4s3)o2)c1 |  |  |  | EC50 (Streptococcus): 26.2 µM (active); EC50 [4]: 0.767 µM (active) |
| COc1ccccc1NS(=O)(=O)c1cc(NC(=O)c2cccs2)ccc1N1CCCCC1 |  | 1.23 µM (active) | > 30 µM (not active) |  |
| CN(C)CCCNc1c2c(nc3cc(-c4cccc(F)c4)nn13)CCC2 |  | 0.181 µM (active) | > 60 µM (not active) |  |
| Nc1nc2nc(-c3ccccc3)cc(C(F)(F)F)c2s1 | 35.5 µM (active) |  |  |  |

| Compound | CC50 [1] | EC50 [2] | EC50 [3] | other results |
| --- | --- | --- | --- | --- |
| CCn1cc(C(=O)NCc2ccc3c(c2)OCO3)c(=O)c2cc(F)c(N3CCN(C)CC3)cc21 |  | 1.16 µM (active) | > 60 µM (not active) |  |
| O=C(Nc1ccc(N2CCN(C(=O)c3ccc(Cl)cc3)CC2)cc1)c1ccc(Br)o1 |  | 4.09 µM (active) | > 60 µM (not active) |  |
| C[C@@H](C1=C(CCN(C)C)Cc2ccccc21)c1ccccn1 |  |  |  | AC50 (Cytochrome P450 1A2): 20 µM (inconclusive) |
| CCSc1nnc2nc3c(c(O)n12)C1(CCCC1)Cc1ccccc1-3 |  |  |  | EC50 (Streptococcus): 8.43 µM (active); EC50 [4]: 8.43 µM (active) |
| FC(F)(F)c1ccc2c(c1)nc(S)n2C1CC1 | 34.1 µM (active) |  |  |  |
| Cc1cccc(Nc2nc(N3CCOCC3)nc(N3CCOCC3)n2)c1 |  | 0.465 µM (active) | 5.8 µM (active) |  |
| O=C(Nc1ccc2nn(-c3ccccc3)nc2c1)c1cccnc1 | > 50 µM (active) |  |  |  |
| CC(C)(C)C(=O)Cn1c(=N)n(Cc2ccccc2Cl)c2ccccc21 |  | 2.39 µM (active) | > 60 µM (not active) |  |
| COc1ccc(CCNC(=O)COc2ccc(S(=O)(=O)NC3CCCCC3)cc2Cl)cc1 |  |  |  | AC50 (Cytochrome P450 1A2): 25.1 µM (inconclusive) |
| Cc1ncc(C/N=C\c2ccc(Cl)cc2)c(N)n1 |  |  |  | AC50 (Cytochrome P450 1A2): 5.01 µM (inconclusive) |
| Cc1ccc(NC(=O)N(Cc2ccco2)Cc2cc3cc(C)cc(C)c3nc2Cl)cc1 |  | 2.78 µM (active) | > 30 µM (not active) |  |
| O=C(CCCN1C(=O)/C(=C/c2ccccc2Cl)SC1=S)N1CCCC1 | 15.5 µM (active) |  |  |  |
| CCOc1ccc(CN2CCN(Cc3nc(C(C)C)cs3)CC2CCO)cc1 (configuration not stated) |  | 0.845 µM (active) | > 60 µM (not active) |  |
| COc1ccc(/C=N\NC(=O)O)cc1 |  |  |  | AC50 (Cytochrome P450 1A2): 0.501 µM (inconclusive) |
| COc1ccc(-c2oc(/N=C/N3CCCC3)c(C#N)c2-c2ccc(OC)cc2)cc1 |  | 1.75 µM (active) | > 60 µM (not active) |  |
| Cc1c(/C=N\NC(=O)C2COc3ccc(C(C)(C)C)cc3O2)c2ccccc2n1C (configuration not stated) |  | 2.25 µM (active) | > 60 µM (not active) |  |
